Patent US20220072036A1, “METHOD FOR INHIBITING CORONAVIRUS AND METHOD FOR TREATING DISEASE ASSOCIATED WITH CORONAVIRUS INFECTION” (AMAZING FORTUNE CO., LTD., priority 2020, published 2022)

Experiments:
[1] = target: SARS-CoV-2 papain-like protease (PLPro) (Severe acute respiratory syndrome coronavirus 2, UniProt P0DTD1); type: biochemical; details: SARS-CoV2 PLPro 0.9 μM, 30 min preincubation, FG6-pNA substrate, 30° C., 300 seconds; inhibitor concentrations per Table 1; mean±standard deviation
[2] = test system: CC(C)C[C@H](NC(=O)[C@H](CCCNC(=N)N)NC(=O)[C@@H](N)Cc1ccccc1)C(=O)N[C@@H](CCCCN)C(=O)NCC(=O)NCC(=O)Nc1ccc([N+](=O)[O-])cc1; assay: purified protein, by the assay type; details: pH 7.4; 30.0 °C

| Molecule | Inhibition percentage [1] [%] | Km [2] [µM] | kcat [2] [s⁻¹] |
| --- | --- | --- | --- |
| [Mg+2] [Comparative Group 2] | 13.99 ± 0.11 | – | – |
| [Zn+2] [Comparative Group 3] | 19.83 ± 0.88 | – | – |
| SARS-CoV-2 PLpro (Severe acute respiratory syndrome coronavirus 2) | – | 2500 ± 30 | 0.85 ± 0.01 |
